The values that follow come from patent US11639531B2, “Composition, kit, and method for diagnosis and treatment of taxane anticancer agent-resistant cancer” (SUNGKWANG MEDICAL FOUNDATION, priority 2018, dated 2023).

What all share (assay type): cell-based, human
Assay [1] relates to SKpac-17 cells. Nature of the assay: Spheroid-forming assay (miR-150). Particulars: PTX alone-treatment. The method, then: Spheroid-forming assays were performed to verify the effect of miR-150 on cancer stem cell activation. SKpac-17 cells were transfected with pre miR-150 or pre miR-negative. Cells were plated in Ultra-Low-Attachment Surface 6-well culture plates (Corning, Action, MA, USA) in serum-free DEME/F12 medium (Gibco/Life Technologies, Grand Island, N.Y., USA) supplemented with 20 ng/ml epidermal growth factor (Gibco, Carlsbad, Calif., USA), 10 ng/ml basic fibroblast growth factor (Sigma-Aldrich, St. Louis, Mo., USA), 0.4% bovine serum albumin (Sigma-Aldrich, St. Louis, Mo., USA), and 5 μg/mL insulin (Sigma-Aldrich, St. Louis, Mo., USA) at a density of 1000 cells/cm^2. Spheroid formation (of 50 to 100 cells per spheroid) was assessed 7 days after seeding.
In order to verify the effect of miR-150 transfection on cancer stem cells (CSCs) activation, a spheroid-forming assay was performed on paclitaxel-resistant SKpac cells in this Example, and alteration of mRNA of the stemness genes was detected using real-time RT-PCR.

Assay [2] has as its system SKpac cells (SKpac-12, SKpac-16, and SKpac-17). The assay can be described thus: TUNEL assay for apoptosis (miR-150). The conditions noted are these: 48 hours. The protocol: TUNEL assays were performed after pre miR-150 transfection in SKpac-12 and SKpac-17. After 48 hours, apoptotic cells were analyzed using the In Situ Cell Death Detection kit (Roche, Mannheim, Germany). 2×10^7 cells were fixed with 75% ethanol for 2 hours at −20° C. The cells were washed twice with PBS and incubated with 0.1% Triton X-100 and 0.1% sodium citrate for 2 minutes on ice. After washing twice with PBS, the cells were incubated with a TUNEL-labelling mixture for 1 hour at 37° C. in the dark. The samples were washed twice with PBS and analyzed by fluorescence activated cell sorting (FACS) (Becton Dickinson, Franklin Lakes, N.J., USA).
In addition, to determine the effect of miR-150 on apoptosis, the SKpac cells (SKpac-12, SKpac-16, and SKpac-17) were transfected with pre miR-150, and then a TUNEL assay was performed on the cells. […] Collectively, the pre miR-150 transfection by itself or increased a sensitivity of tumor cells with respect to PTX and thus decreased tumor cell proliferation and induced apoptosis in PTX-resistant ovarian cancer cells.

In assay [3] the test system is SKpac cells. Nature of the assay: WST (CCK-8) cell viability assay (miR-136). The conditions noted are these: PTX-alone treatment. The protocol:
In order to investigate the role of miR-136 in the anticancer agent-sensitivity and proliferation activity of PTX-resistant SKpac cells, cell survival rate, cell proliferation, and apoptosis analyses were performed on the SKpac cells transfected by miR-136 mimics. […] In addition, to confirm whether overexpression of miR-136 increases cell toxicity induced by PTX, degrees of apoptosis were evaluated using a TUNEL analysis. […] In collection of these experiment results, it may be known that the overexpression of miR-136, when used alone or in a combination with PTX, decreases cell viability and cell proliferation of anticancer agent-resistant ovarian cancer cells and increases apoptosis.

For assay [4], the system named is HUVECs. The assay can be described thus: Angiogenesis (tube formation) assay (miR-150). The protocol: Matrigel (BD Biosciences, California, USA) was placed into flat-bottom, 96-well plate and polymerized for 1 hour at 37° C. HUVECs incubated in M199 containing 1% FBS were harvested after trypsin treatment, resuspended in M199, plated onto the layer of Matrigel at a density of 1×10^4 cells/well, and the supernatant of SKpac-17 cells transfected by pre miR150 was added. After 24 hours, 48 hours, and 72 hours, tube formation was observed.
Cell migration and angiogenesis are important factors that influence tumor progression and metastasis. In this Example, a wound healing assay and a tube formation assay were performed to examine the effect of pre miR-150 on cell migration and the effect on angiogenesis, respectively.

Consider `CC(=O)O[C@H]1C(=O)[C@@]2(C)[C@H]([C@H](OC(=O)c3ccccc3)[C@]3(O)C[C@H](OC(=O)[C@H](O)[C@@H](NC(=O)c4ccccc4)c4ccccc4)C(C)=C1C3(C)C)[C@]1(OC(C)=O)CO[C@@H]1C[C@@H]2O` [PTX, paclitaxel], for which the spheroid formation entry in assay [1] is recorded as “no changes”. Moreover, in assay [2], the “apoptosis of the comparison treatments” value is on record as 3.5%. Besides, the “influence on the cell viability” value in assay [3] was “no influence”. The “reduction effect (migration / tube formation)” value in assay [4] is listed as “not observed”.
